Data as given in patent publication US20120245137A1 (Zalicus Pharmaceuticals Ltd., priority 2009, published 2012).

Assays:
Assay type in all cases: cell-based
[1] = target: human α1H T-type channels (Homo sapiens, UniProt O95180); experiment: T-type calcium channel block, whole cell patch clamp, α1H; settings: HEK cells stably expressing human α1H; mainly non-inactivated protocol; values above 10,000 nM represented as 10000
Experimental: (§1) T-type calcium channel blocking activity was assayed in human embryonic kidneycells, HEK 293 (Invitrogen), stably transfected with the T-type calcium channel subunits. Briefly, cells were cultured in Dulbecco's modified eagle medium (DMEM) supplemented with 10% fetal bovine serum, 200 U/ml penicillin, and 0.2 mg/mL streptomycin at 37° C. with 5% CO2. At 85% confluency, cells were split with 0.25% trypsin/1 mM EDTA and plated at 10% confluency on glass coverslips. At 12 hours, the medium was replaced, and the cells stably transfected using a standard calcium phosphate protocol and the appropriate calcium channel cDNA's. Fresh DMEM was supplied, and the cells transferred to 28° C./5% CO2.
(§2) Standard patch-clamp techniques were employed to identify blockers of T-type currents. Briefly, previously described HEK cell lines stably expressing human α1G, α1H, and α1I T-type channels were used for all the recordings (passage #: 4-20, 37° C., 5% CO2). Whole cell patch clamp experiments were performed using an Axopatch 200B amplifier (Axon Instruments, Burlingame, Calif.) linked to a personal computer equipped with pCLAMP software. Data were analyzed using Clampfit (Axon Instruments) and SigmaPlot 4.0 (Jandel Scientific). To obtain T-type currents, plastic dishes containing semi-confluent cells were positioned on the stage of a ZEISS AXIOVERT S100 microscope after replacing the culture medium with external solution (Table 2). Whole-cell patches were obtained using pipettes (borosilicate glass with filament, O.D.: 1.5 mm, I.D.: 0.86 mm, 10 cm length), fabricated on a SUTTER P-97 puller with resistance values of ˜5 MΩ (Table 3).
(§3) T-type currents were reliably obtained by using two voltage protocols: • “non-inactivating,” and • “inactivation.”
(§4) Test compounds were dissolved in external solution, 0.1-0.01% DMSO. After ˜10 minutes rest, they were applied by gravity close to the cell using a WPI microfil tubing. The “non-inactivated” pre-pulse was used to examine the resting block of a compound. The “inactivated” protocol was employed to study voltage-dependent block.

[2] = target: N-type calcium channel subunits (α1B, α2δ, and β3a) (Homo sapiens, UniProt Q00975); experiment: Block of Cav2.2 channel, whole cell voltage clamp, manual and PatchXpress; settings: Table 5; table follows Assay Example 3 (whole cell voltage clamp / PatchXpress); assay not given
Chain of N-type calcium channel subunits (α1B, α2δ, and β3a) (Q00975 whole entry): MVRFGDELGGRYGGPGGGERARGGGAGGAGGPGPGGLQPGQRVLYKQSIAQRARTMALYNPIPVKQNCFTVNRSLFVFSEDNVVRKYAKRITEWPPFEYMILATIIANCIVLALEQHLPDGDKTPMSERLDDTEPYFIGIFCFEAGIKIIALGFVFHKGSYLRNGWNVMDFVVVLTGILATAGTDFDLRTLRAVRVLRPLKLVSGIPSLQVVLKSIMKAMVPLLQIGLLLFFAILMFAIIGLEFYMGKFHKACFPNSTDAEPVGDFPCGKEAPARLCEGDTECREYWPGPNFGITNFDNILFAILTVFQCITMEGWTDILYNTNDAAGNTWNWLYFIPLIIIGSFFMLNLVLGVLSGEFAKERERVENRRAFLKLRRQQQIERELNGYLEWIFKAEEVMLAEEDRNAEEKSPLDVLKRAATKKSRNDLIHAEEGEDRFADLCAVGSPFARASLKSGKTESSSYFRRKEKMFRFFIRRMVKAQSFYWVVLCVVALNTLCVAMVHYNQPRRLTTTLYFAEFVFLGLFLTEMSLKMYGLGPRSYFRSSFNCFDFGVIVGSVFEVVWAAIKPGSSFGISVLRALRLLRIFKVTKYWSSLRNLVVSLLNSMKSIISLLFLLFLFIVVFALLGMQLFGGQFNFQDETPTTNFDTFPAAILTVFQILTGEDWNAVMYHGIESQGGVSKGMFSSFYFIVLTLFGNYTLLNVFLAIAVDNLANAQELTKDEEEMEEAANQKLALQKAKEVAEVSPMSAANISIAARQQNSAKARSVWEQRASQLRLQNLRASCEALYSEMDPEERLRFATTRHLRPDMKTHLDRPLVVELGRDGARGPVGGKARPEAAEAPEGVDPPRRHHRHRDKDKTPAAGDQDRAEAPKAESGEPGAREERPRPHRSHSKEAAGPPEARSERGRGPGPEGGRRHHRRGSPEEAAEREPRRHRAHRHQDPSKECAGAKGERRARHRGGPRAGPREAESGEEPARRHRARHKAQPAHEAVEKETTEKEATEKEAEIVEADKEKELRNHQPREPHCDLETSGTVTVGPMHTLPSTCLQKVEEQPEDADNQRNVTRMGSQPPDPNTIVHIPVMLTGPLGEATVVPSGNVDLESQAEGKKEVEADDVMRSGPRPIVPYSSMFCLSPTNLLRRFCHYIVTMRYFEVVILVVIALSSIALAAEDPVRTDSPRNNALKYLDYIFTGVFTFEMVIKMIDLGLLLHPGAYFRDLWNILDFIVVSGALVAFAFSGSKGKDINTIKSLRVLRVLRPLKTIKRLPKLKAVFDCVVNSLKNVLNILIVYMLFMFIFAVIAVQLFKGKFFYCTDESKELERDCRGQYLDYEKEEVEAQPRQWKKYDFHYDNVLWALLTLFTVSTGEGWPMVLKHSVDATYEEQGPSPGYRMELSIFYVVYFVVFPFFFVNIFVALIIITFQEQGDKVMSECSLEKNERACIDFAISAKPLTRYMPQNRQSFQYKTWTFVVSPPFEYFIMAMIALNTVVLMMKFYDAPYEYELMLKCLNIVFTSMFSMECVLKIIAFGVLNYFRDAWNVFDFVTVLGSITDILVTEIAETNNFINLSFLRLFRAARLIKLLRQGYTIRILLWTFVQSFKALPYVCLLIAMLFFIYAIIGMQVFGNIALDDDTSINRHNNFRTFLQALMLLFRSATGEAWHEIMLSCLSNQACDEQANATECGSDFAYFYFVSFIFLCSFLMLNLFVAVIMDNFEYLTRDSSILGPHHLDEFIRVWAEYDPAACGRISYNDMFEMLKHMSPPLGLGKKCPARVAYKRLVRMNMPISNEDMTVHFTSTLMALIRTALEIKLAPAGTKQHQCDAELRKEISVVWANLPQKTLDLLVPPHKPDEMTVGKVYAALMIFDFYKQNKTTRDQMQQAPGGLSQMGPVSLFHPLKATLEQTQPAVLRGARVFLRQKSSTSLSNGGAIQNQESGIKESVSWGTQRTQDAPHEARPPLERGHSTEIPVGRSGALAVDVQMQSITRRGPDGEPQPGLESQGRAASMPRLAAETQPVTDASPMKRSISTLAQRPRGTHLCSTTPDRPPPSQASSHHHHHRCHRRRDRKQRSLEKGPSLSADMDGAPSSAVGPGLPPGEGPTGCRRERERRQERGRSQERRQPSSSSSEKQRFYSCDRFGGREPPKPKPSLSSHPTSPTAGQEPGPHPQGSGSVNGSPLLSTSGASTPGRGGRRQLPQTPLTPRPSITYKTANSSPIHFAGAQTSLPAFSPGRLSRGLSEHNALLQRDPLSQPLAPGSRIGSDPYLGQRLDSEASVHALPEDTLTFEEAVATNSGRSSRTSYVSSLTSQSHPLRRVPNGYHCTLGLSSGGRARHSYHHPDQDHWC
Chain of N-type calcium channel subunits (α1B, α2δ, and β3a) (P54289 25-1103 partner): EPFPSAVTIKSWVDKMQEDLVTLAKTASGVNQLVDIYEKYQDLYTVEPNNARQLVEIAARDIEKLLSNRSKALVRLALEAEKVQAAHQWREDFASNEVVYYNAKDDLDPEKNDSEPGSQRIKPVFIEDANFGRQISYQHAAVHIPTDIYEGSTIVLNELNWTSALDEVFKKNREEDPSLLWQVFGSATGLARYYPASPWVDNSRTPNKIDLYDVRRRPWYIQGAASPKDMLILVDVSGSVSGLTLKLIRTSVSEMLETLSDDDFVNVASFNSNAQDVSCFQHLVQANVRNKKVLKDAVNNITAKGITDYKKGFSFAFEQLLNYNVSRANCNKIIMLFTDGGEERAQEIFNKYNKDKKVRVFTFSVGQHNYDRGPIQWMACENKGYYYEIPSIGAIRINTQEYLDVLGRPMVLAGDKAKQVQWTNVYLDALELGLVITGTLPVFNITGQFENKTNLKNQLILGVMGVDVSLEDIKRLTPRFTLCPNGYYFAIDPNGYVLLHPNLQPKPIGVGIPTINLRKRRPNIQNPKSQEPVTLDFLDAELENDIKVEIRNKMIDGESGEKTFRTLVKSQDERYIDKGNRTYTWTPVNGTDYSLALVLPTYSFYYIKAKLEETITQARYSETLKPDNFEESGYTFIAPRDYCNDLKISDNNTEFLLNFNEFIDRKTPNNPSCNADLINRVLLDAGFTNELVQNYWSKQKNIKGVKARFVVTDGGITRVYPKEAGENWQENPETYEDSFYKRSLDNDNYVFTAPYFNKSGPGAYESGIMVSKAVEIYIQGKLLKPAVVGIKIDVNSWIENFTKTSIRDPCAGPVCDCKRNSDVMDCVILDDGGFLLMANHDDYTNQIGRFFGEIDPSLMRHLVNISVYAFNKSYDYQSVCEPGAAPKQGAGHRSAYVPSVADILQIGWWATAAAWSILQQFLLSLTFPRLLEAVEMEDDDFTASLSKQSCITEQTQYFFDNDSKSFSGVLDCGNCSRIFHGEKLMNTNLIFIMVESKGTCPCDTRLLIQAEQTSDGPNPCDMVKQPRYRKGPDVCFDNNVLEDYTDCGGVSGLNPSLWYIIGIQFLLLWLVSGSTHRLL
Chain of N-type calcium channel subunits (α1B, α2δ, and β3a) (P54284 whole entry partner): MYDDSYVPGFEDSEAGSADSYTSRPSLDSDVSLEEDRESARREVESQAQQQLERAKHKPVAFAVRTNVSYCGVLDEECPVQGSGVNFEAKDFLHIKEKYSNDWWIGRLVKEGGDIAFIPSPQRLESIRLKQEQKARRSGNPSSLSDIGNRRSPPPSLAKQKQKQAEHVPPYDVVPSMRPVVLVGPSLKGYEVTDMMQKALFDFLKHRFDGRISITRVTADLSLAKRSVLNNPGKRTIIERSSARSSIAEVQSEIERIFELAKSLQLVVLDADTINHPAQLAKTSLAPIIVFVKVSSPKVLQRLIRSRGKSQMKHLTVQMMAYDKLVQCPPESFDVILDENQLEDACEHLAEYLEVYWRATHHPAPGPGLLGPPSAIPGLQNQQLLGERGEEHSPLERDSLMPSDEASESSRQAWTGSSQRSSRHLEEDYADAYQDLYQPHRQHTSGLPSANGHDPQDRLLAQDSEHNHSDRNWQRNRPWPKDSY
Method in brief: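 Percent block taken as current amplitude ratio with versus without compound, applied in rising doses; IC50 fitted where one cell received multiple doses. Protocol: 50 ms pulses to +20 mV at 0.067 Hz from […] or −90 mV holding; P/n leak subtraction, no junction-potential correction; manual and PatchXpress recordings.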

[3] = target: human α1G T-type channels (Homo sapiens, UniProt O43497); experiment: T-type calcium channel block, whole cell patch clamp, α1G; settings: HEK cells stably expressing human α1G; mainly non-inactivated protocol; values above 10,000 nM represented as 10000
Experimental: as §1, §2, §3, §4

Compound	IC50 [1]	IC50 [2]	IC50 [3]
6-fluoro-N-((1R,4R)-4-((3- (trifluoromethyl)phenylsulfonyl) methyl)cyclohexyl)-1H- benzo[d]imidazole-2-carboxamide [Compound 110]	> 10 µM	6020 nM	
CC1(S(=O)(=O)c2cccc(C(F)(F)F)c2)CCC(NC(=O)c2ccc(C(F)(F)F)cn2)CC1 (stereo not shown) [Compound 3, N-(4-methyl-4-(3-(trifluoromethyl)phenylsulfonyl)cyclohexyl)-5-(trifluoromethyl) picolinamide]	> 10 µM	640 nM	
CC1(S(=O)(=O)c2cccc(C(F)(F)F)c2)CCC(NC(=O)CCC(F)(F)F)CC1 (stereo not shown) [Compound 5, 4,4,4-trifluoro-N-(4-methyl-4-(3-(trifluoromethyl)phenylsulfonyl)cyclohexyl)butanamide]	> 10 µM	380 nM	
CC(C)(C)NC(=O)CNC[C@H]1CC[C@@H](S(=O)(=O)c2cccc(C(F)(F)F)c2)CC1 [Compound 35, N-tert-butyl-2-(((1S,4S)-4-(3-(trifluoromethyl)phenylsulfonyl)cyclohexyl)methylamino)acetamide]	> 10 µM		
COc1cc(F)cc(C(=O)N[C@H]2CC[C@@H](S(=O)(=O)c3cccc(C(F)(F)F)c3)CC2)c1 [Compound 39, 3-fluoro-5-methoxy-N-((1S,4S)-4-(3-(trifluoromethyl)phenylsulfonyl)cyclohexyl)benzamide]	> 10 µM	410 nM	
Cn1cc(C(=O)N[C@H]2CC[C@@H](S(=O)(=O)c3cccc(C(F)(F)F)c3)CC2)c(C(F)(F)F)n1 [Compound 45, 1-methyl-3-(trifluoromethyl)-N-((1S,4S)-4-(3-(trifluoromethyl)phenylsulfonyl)cyclohexyl)-1H-pyrazole-4-carboxamide]	> 10 µM	1290 nM	
CCN(CC)C(=O)CN[C@H]1CC[C@@H](S(=O)(=O)c2cccc(C(F)(F)F)c2)CC1 [Compound 51, N,N-diethyl-2-((1S,4S)-4-(3-(trifluoromethyl)phenylsulfonyl)cyclohexylamino)acetamide]	> 10 µM	1510 nM	
O=C(N[C@H]1CC[C@H](S(=O)(=O)c2cccc(C(F)(F)F)c2)CC1)c1cc(C(F)(F)F)ccn1 [Compound 61, 4-(trifluoromethyl)-N-((1R,4R)-4-(3-(trifluoromethyl)phenylsulfonyl)cyclohexyl)picolinamide]	> 10 µM	1650 nM	
Cn1cc(C(=O)N[C@H]2CC[C@H](S(=O)(=O)c3cccc(C(F)(F)F)c3)CC2)c(C(F)(F)F)n1 [Compound 64, 1-methyl-3-(trifluoromethyl)-N-((1R,4R)-4-(3-(trifluoromethyl)phenylsulfonyl)cyclohexyl)-1H-pyrazole-4-carboxamide]	> 10 µM	550 nM	
O=C(CN[C@H]1CC[C@H](S(=O)(=O)c2cccc(C(F)(F)F)c2)CC1)NCC(F)(F)F [Compound 68, N-(2,2,2-trifluoroethyl)-2-((1R,4R)-4-(3-(trifluoromethyl)phenylsulfonyl)cyclohexylamino)acetamide]	> 10 µM	1720 nM	
CC1(NC(=O)c2cc(F)cc(Cl)c2)CCC(F)(S(=O)(=O)c2cccc(C(F)(F)F)c2)CC1 (stereo not shown) [Compound 93, 3-chloro-5-fluoro-N-(4-fluoro-1-methyl-4-(3-(trifluoromethyl)phenylsulfonyl)cyclohexyl)benzamide]	> 10 µM	240 nM	
O=C(N[C@H]1CC[C@H](CS(=O)(=O)c2cccc(C(F)(F)F)c2)CC1)c1cc(F)cc(C(F)(F)F)c1 [Compound 107, 3-fluoro-5-(trifluoromethyl)-N-((1R,4R)-4-((3-(trifluoromethyl)phenylsulfonyl)methyl)cyclohexyl)benzamide]	> 10 µM	2710 nM	
O=C(CN[C@H]1CC[C@H](CS(=O)(=O)c2cccc(C(F)(F)F)c2)CC1)Nc1ccccn1 [Compound 120, N-(pyridin-2-yl)-2-((1R,4R)-4-((3-(trifluoromethyl)phenylsulfonyl)methyl)cyclohexylamino)acetamide]	> 10 µM	580 nM	
CC(C)(C)S(=O)(=O)c1ccsc1C(=O)N[C@H]1CC[C@H](CS(=O)(=O)c2cccc(C(F)(F)F)c2)CC1 [Compound 178, 3-(tert-butylsulfonyl)-N-((1R.4R)-4-((3-(trifluoromethyl)phenylsulfonyl)methyl)cyclohexyl)thiophene-2-carboxamide]	> 10 µM	250 nM	
Cc1cc(C(=O)N[C@H]2CC[C@@](F)(S(=O)(=O)c3cccc(C(F)(F)F)c3)CC2)c(C(F)(F)F)o1 [Compound 243]		60 nM	4.45 µM
CC(C)(C)S(=O)(=O)c1ccsc1C(=O)N[C@H]1CC[C@@](F)(S(=O)(=O)c2cccc(C(F)(F)F)c2)CC1 [Compound 244, 3-(tert-butylsulfonyl)-N-((1S,4S)-4-fluoro-4-(3-(trifluoromethyl)phenylsulfonyl)cyclohexyl)thiophene-2-carboxamide]		40 nM	3.57 µM
O=C(N[C@H]1CC[C@@](F)(S(=O)(=O)c2cccc(C(F)(F)F)c2)CC1)c1ccnn1CC(F)(F)F [Compound 245, N-((1S,4S)-4-fluoro-4-(3-(trifluoromethyl)phenylsulfonyl)cyclohexyl)-1-(2,2,2-trifluoroethyl)-1H-pyrazole-5-carboxamide]		130 nM	3.81 µM
O=C(N[C@H]1CC[C@@](F)(S(=O)(=O)c2cccc(C(F)(F)F)c2)CC1)c1ccnc(C(F)(F)F)c1 [Compound 246]		130 nM	1.72 µM
CC(C)(C(=O)N[C@H]1CC[C@@](F)(S(=O)(=O)c2cc(F)cc(C(F)(F)F)c2)CC1)S(=O)(=O)c1cccc(C(F)(F)F)c1 [Compound 292, N-((1S,4S)-4-fluoro-4-(3-fluoro-5-(trifluoromethyl)phenylsulfonyl)cyclohexyl)-2-methyl-2-(3-(trifluoromethyl)phenylsulfonyl) propanamide]	> 10 µM	130 nM	
Cc1nc(S(=O)(=O)N[C@H]2CC[C@@](F)(S(=O)(=O)c3cccc(C(F)(F)F)c3)CC2)cn1C [Compound 294]	> 10 µM	3760 nM	
O=S(=O)(N[C@H]1CC[C@@](F)(S(=O)(=O)c2cccc(C(F)(F)F)c2)CC1)c1ccc(C(F)(F)F)cc1 [Compound 301, N-((1S,4S)-4-fluoro-4-(3-(trifluoromethyl)phenylsulfonyl)cyclohexyl)-4-(trifluoromethyl) benzenesulfonamide]		530 nM	> 10 µM
CC1(NC(=O)c2ccc(OC(F)(F)F)cc2)CCC(S(=O)(=O)c2cccc(C(F)(F)F)c2)CC1 (stereo not shown) [Compound 315, N-(1-methyl-4-(3-(trifluoromethyl)phenylsulfonyl)cyclohexyl)-4-(trifluoromethoxy)benzamide]	> 10 µM	1230 nM	
Cn1nc(C(F)(F)F)cc1C(=O)N[C@H]1CC[C@@H](S(=O)(=O)c2cc(F)cc(C(F)(F)F)c2)CC1 [Compound 321, N-((1S,4S)-4-(3-fluoro-5-(trifluoromethyl)phenylsulfonyl)cyclohexyl)-1-methyl-3-(trifluoromethyl)-1Hpyrazole-5-carboxamide]	> 10 µM	1920 nM	
CC(C)(C)NC(=O)CNC[C@H]1C[C@H](S(=O)(=O)c2cccc(C(F)(F)F)c2)C1 [Compound 359, N-tert-butyl-2-(((1R,3R)-3-(3-(trifluoromethyl)phenylsulfonyl)cyclobutyl)methylamino)acetamide]		1610 nM	5.42 µM
O=C(Nc1ccc(Oc2ccc(F)cc2)nc1)[C@H]1C[C@H](S(=O)(=O)c2cccc(C(F)(F)F)c2)C1 [Compound 405, (1R,3R)-N-(6-(4-fluorophenoxy)pyridin-3-yl)-3-(3-(trifluoromethyl)phenylsulfonyl)cyclobutane carboxamide]		1300 nM	> 10 µM
O=S(=O)(NC[C@H]1C[C@H](S(=O)(=O)c2cccc(C(F)(F)F)c2)C1)c1ccccc1C(F)(F)F [Compound 426, 2-(trifluoromethyl)-N-(((1R,3R)-3-(3-(trifluoromethyl)phenylsulfonyl)cyclobutyl)methyl)benzenesulfonamide]		1140 nM	> 10 µM
CC(C)(CCNC(=O)c1ccc(F)c(C(F)(F)F)c1)S(=O)(=O)c1cccc(C(F)(F)F)c1 [Compound 466, 4-fluoro-N-(3-methyl-3-(3-(trifluoromethyl)phenylsulfonyl)butyl)-3-(trifluoromethyl)benzamide]	0.55 µM		
